{
  "source": "patent US11773420B2",
  "about": "“Process for enzymatic hydrolysis of lignocellulosic material and fermentation of sugars” (VERSALIS S.P.A., priority 2014, dated 2023)",
  "tested_on": "cellulase enzyme cocktail TEC210",
  "test": "Effect of gluconic acid on enzymatic hydrolysis of pretreated corn stover by TEC210",
  "format": "biochemical, Rasamsonia",
  "details": "for Glucose release (in %): 6% w/w dm, pH 4.5, 62° C., 50 hours, 5 mg TEC210/g dm",
  "description": "Twenty grams of pretreated corn stover were incubated in a 50 ml Greiner test tube for 50 hours at a dry matter level of 6% w/w, pH 4.5 at 62° C. in the presence of 5 mg of the cellulase enzyme cocktail TEC210 per gram of dry matter and in the presence of 0, 2, 4, 6, or 8 g/l gluconic acid to determine the inhibiting effect of gluconic acid on the hydrolysis of glucan in lignocellulosic feedstock. The experiment is performed at maximum oxygen saturation.\nSamples were taken after 50 hours of incubation and the samples were centrifuged for further analysis in an Eppendorf centrifuge type 5810 for 8 minutes at 4000 rpm. The glucose concentration was measured in the supernatant of each sample by means of HPLC using a Bio-Rad HPX87H column. The glucose release as presented in Table 3 is a direct measure for the enzymatic hydrolysis (glucan hydrolysis). A gluconic acid level of 2 g/l in the supernatant corresponds with 89 g/kg glucan in the lignocellulosic material. This can be calculated as described above with a density of 1.02 kg/I, a pellet factor of 2% and a glucan content of 21.6 g glucan/kg hydrolysate.",
  "data": [
    {"smiles": "O=C(O)[C@H](O)[C@@H](O)[C@H](O)[C@H](O)CO", "note": "[Gluconic acid, gluconic acid]", "values": [
      {"measurement": "Glucose release (in %)", "setting": "gluconic acid added 2 g/l (89 g/kg glucan)", "result": 90, "unit": "%"},
      {"measurement": "Glucose release (in %)", "setting": "gluconic acid added 4 g/l (178 g/kg glucan)", "result": 82, "unit": "%"},
      {"measurement": "Glucose release (in %)", "setting": "gluconic acid added 6 g/l (267 g/kg glucan)", "result": 79, "unit": "%"},
      {"measurement": "Glucose release (in %)", "setting": "gluconic acid added 8 g/l (356 g/kg glucan)", "result": 77, "unit": "%"},
      {"measurement": "effect on glucan hydrolysis", "setting": "higher concentrations of gluconic acid", "result": "negative effect on glucan hydrolysis"}
    ]}
  ]
}
